According to US4868204A, “Mycalamide compounds, compositions thereof and methods of preparation and use” (Harbor Branch Oceanographic Institution, Inc., priority 1988, dated 1989):

Experiments:
[1] = tested on: polio vaccine virus Type I (PVI); assay type: cell-based
P388 mouse leukemia cell = assay: in vitro P388 mouse leukemia cell assay; assay type: cell-based; settings: 50% inhibition of cell replication vs untreated cultures
Experimental: Antitumor effectiveness of the compounds of the invention was evaluated using a standardized in vitro P388 mouse leukemia cell assay protocol disclosed in U.S. Pat. No. 4,731,366 with the antitumor activity being expressed in IC50 (concentration that results in 50% inhibition of cell replication normalized to untreated cultures) determined with a log-log transform of data and expressed as xx ng/ml. As an example, for mycalamide A the P388 assay value was […]

HSV = assay type: cell-based, Herpes simplex type 1 virus

C=C1CC(OC)(C(OC(=O)c2ccc(Br)cc2)C(=O)NC2OCOC3C2OC(CC(O)COC(=O)c2ccc(Br)cc2)C(C)(C)C3OC)OC(C)C1C (stereo not drawn) [Example 12, Mycalamide A 7,18-di-p-bromobenzoate]
AV assay, PVI [1]: 4+ | P388 IC50 (P388 mouse leukemia cell): 141.2 ng/mL

C=C1CC(OC)(C(O)C(=O)NC2OCOC3C2OC(CC(O)COC(=O)c2ccc(Br)cc2)C(C)(C)C3OC)OC(C)C1C (stereo not drawn) [Example 11, Mycalamide A 18-mono-p-bromobenzoate]
AV assay, cytotoxicity (BSC cells): - | AV assay, PVI [1]: 4+ and - | P388 IC50 (P388 mouse leukemia cell): 1.28 ng/mL

C=C1CC(OC)(C(OC(C)=O)C(=O)NC2OCOC3C2OC(CC(COC(C)=O)OC(C)=O)C(C)(C)C3OC)OC(C)C1C (stereo not drawn) [Example 7, Mycalamide A Triacetate]
AV assay, cytotoxicity (BSC cells): - | P388 IC50 (P388 mouse leukemia cell): 51.9 ng/mL

COC1C2OCOC(NC(=O)C(O)C3(OC)CC(C)C(C)C(C)O3)C2OC(CC(O)CO)C1(C)C (stereo not drawn) [Example 19, 4α-Dihydro mycalamide A]
AV assay, HSV (HSV): 4+ and - | P388 IC50 (P388 mouse leukemia cell): 2.3 ng/mL

C=C1CC(O)(C(O)C(=O)NC2OCOC3C2OC(CC(CO)OC)C(C)(C)C3OC)OC(C)C1C (stereo not drawn) [Example 27, Pseudomycalamide B]
AV assay, cytotoxicity (BSC cells): - | AV assay, HSV (HSV): 4+ and - | AV assay, PVI [1]: 4+ and - | P388 IC50 (P388 mouse leukemia cell): 1.8 ng/mL

C=C1CC(OC)(C(O)C(=O)NC2OCOC3C2OC(CC(CO[Si](C)(C)C)O[Si](C)(C)C)C(C)(C)C3OC)OC(C)C1C (stereo not drawn) [Example 14, Mycalamide A 17,18-bis-trimethylsilylether]
AV assay, HSV (HSV): 4+ | AV assay, PVI [1]: 4+ | P388 IC50 (P388 mouse leukemia cell): 1.2 ng/mL

C=C1CC(OC)(C(O[Si](C)(C)C)C(=O)NC2OCOC3C2OC(CC(CO[Si](C)(C)C)OC)C(C)(C)C3OC)OC(C)C1C (stereo not drawn) [Example 18, Mycalamide B bis-trimethylsilylether]
P388 IC50 (P388 mouse leukemia cell): 0.19 ng/mL

COC(CO)CC1OC2C(NC(=O)C(O)C3(O)CC(C)C(C)C(C)O3)OCOC2C(OC)C1(C)C (stereo not drawn) [Example 26, 4α Dihydro pseudomycalamide B]
AV assay, cytotoxicity (BSC cells): - | AV assay, HSV (HSV): 4+ and - | AV assay, PVI [1]: 4+ and - | P388 IC50 (P388 mouse leukemia cell): 3 ng/mL

C=C1CC(OC)(C(O)C(=O)NC2OCOC3C2OC(CC(CO[Si](C)(C)C)OC)C(C)(C)C3OC)OC(C)C1C (stereo not drawn) [Example 17, Mycalamide B 18-mono-trimethylsilylether]
AV assay, cytotoxicity (BSC cells): - | AV assay, HSV (HSV): 4+ and - | AV assay, PVI [1]: 4+ and - | P388 IC50 (P388 mouse leukemia cell): 0.08 ng/mL

COC1C2OCOC(NC(=O)C(OC(=O)c3ccc(Br)cc3)=C3C=C(C)C(C)C(C)O3)C2OC(CC(O)COC(=O)c2ccc(Br)cc2)C1(C)C (single isomer, unassigned) [Example 13, Neomycalamide A 7,18-di-p-bromobenzoate]
AV assay, cytotoxicity (BSC cells): - | AV assay, HSV (HSV): 4+ and - | AV assay, PVI [1]: 4+ and - | P388 IC50 (P388 mouse leukemia cell): 572.5 ng/mL

COC1C2OCOC(NC(=O)C(O)C3(OC)CC(C)C(C)C(C)O3)C2OC(CC(O)CO)C1(C)C (stereo not drawn) [Example 22, 4β-dihydro mycalamide A]
AV assay, cytotoxicity (BSC cells): - | P388 IC50 (P388 mouse leukemia cell): 0.8 ng·mL

C=C1CC(OC)(C(OC(C)=O)C(=O)NC2OCOC3C2OC(CC(COC(C)=O)OC)C(C)(C)C3OC)OC(C)C1C (stereo not drawn) [Example 9, Mycalamide B Diacetate]
AV assay, cytotoxicity (BSC cells): - | AV assay, HSV (HSV): 4+ and - | AV assay, PVI [1]: 4+ and - | P388 IC50 (P388 mouse leukemia cell): 15.3 ng/mL

C=C1C[C@](OC)([C@H](O)C(=O)N[C@H]2OCO[C@H]3[C@@H]2O[C@H](C[C@@H](CO)OC)C(C)(C)[C@@H]3OC)O[C@H](C)[C@@H]1C [Example 2, Mycalamide B]
AV assay, cytotoxicity (BSC cells): - | AV assay, HSV (HSV): 4+ and - | AV assay, PVI [1]: 4+ and - | P388 IC50 (P388 mouse leukemia cell): 0.26 ng/mL

C=C1CC(OC)(C(O)C(=O)NC2OCOC3C2OC(CC(O)CO[Si](C)(C)C(C)(C)C)C(C)(C)C3OC)OC(C)C1C (stereo not drawn) [Example 16, Mycalamide A 18-mono-t-butyl,dimethylsilylether]
AV assay, cytotoxicity (BSC cells): - | AV assay, HSV (HSV): 4+ and - | AV assay, PVI [1]: 4+ and - | P388 IC50 (P388 mouse leukemia cell): 28.5 ng/mL

COC(CO)CC1OC2C(NC(=O)C(O)C3(OC)CC(C)C(C)C(C)O3)OCOC2C(OC)C1(C)C (stereo not drawn) [Example 24, 4β-Dihydro mycalamide B]
AV assay, PVI [1]: 4+ | P388 IC50 (P388 mouse leukemia cell): 0.14 ng/mL

COC1C2OCOC(NC(=O)C(O)C3(OC)CC4(CO4)C(C)C(C)O3)C2OC(CC(O)CO)C1(C)C (stereo not drawn) [Example 3, Mycalamide A 4 γ-epoxide]
P388 IC50 (P388 mouse leukemia cell): 34 ng/mL

COC1C2OCOC(NC(=O)C(O)C3(O)CC(C)C(C)C(C)O3)C2OC(CC(O)CO)C1(C)C (stereo not drawn) [Example 20, 4α-dihydro pseudomycalamide A]
AV assay, HSV (HSV): 4+ | P388 IC50 (P388 mouse leukemia cell): 10.5 ng/mL

COC1C2OCOC(NC(=O)C(O)C3(OC)CC4(CO4)C(C)C(C)O3)C2OC(CC(O)CO)C1(C)C (stereo not drawn) [Example 4, Mycalamide A 4β-epoxide]
AV assay, HSV (HSV): 4+ | P388 IC50 (P388 mouse leukemia cell): 14.9 ng/mL

C=C1CC(OC)(C(OC(=O)c2ccc(Br)cc2)C(=O)NC2OCOC3C2OC(CC(O)CO)C(C)(C)C3OC)OC(C)C1C (stereo not drawn) [Example 10, Mycalamide A 7-mono-p-bromobenzoate]
AV assay, HSV (HSV): 4+ | AV assay, PVI [1]: 4+ | P388 IC50 (P388 mouse leukemia cell): 23.3 ng/mL

COC1C2OCOC(NC(=O)C(O)C3(O)CC(C)C(C)C(C)O3)C2OC(CC(O)CO)C1(C)C (stereo not drawn) [Example 23, 4β-dihydro pseudomycalamide A]
AV assay, HSV (HSV): 4+ | AV assay, PVI [1]: 4+ | P388 IC50 (P388 mouse leukemia cell): 4.2 ng/mL

C=C1CC(OC)(C(OC(=O)CC)C(=O)NC2OCOC3C2OC(CC(COC(=O)CC)OC(=O)CC)C(C)(C)C3OC)OC(C)C1C (stereo not drawn) [Example 8, Mycalamide A Tripropanoate]
AV assay, cytotoxicity (BSC cells): - | AV assay, PVI [1]: 4+ and - | P388 IC50 (P388 mouse leukemia cell): 85.6 ng/mL

C=C1CC(OC)(C(O[Si](C)(C)C)C(=O)NC2OCOC3C2OC(CC(CO[Si](C)(C)C)O[Si](C)(C)C)C(C)(C)C3OC)OC(C)C1C (stereo not drawn) [Example 15, Mycalamide A tris-trimethylsilylether]
AV assay, cytotoxicity (BSC cells): - | AV assay, HSV (HSV): 4+ and - | AV assay, PVI [1]: 4+ and - | P388 IC50 (P388 mouse leukemia cell): 1.3 ng/mL

C=C1CC(O)(C(O)C(=O)NC2OCOC3C2OC(CC(O)CO)C(C)(C)C3OC)OC(C)C1C (stereo not drawn) [Example 28, Pseudomycalamide A]
AV assay, HSV (HSV): 4+ | AV assay, PVI [1]: 4+ | P388 IC50 (P388 mouse leukemia cell): 23 ng/mL
